We go through two compounds from article PMC11284790, “Targeting Myeloperoxidase Ameliorates Gouty Arthritis: A Virtual Screening Success Story” (Journal of Medicinal Chemistry, 2024).

A short description of data set [1]: Taurine chloroamine scavenger assay. As to conditions: 15 min at 37 °C, TMB readout. The protocol:
Taurine chloramine was prepared by mixing hypochlorous acid (2.81 mM) with taurine (5 mM), cetyltrimethylammonium chloride (0.03%), NaCl (140 mM), and diethylenetriaminepentaacetic acid (100 μM) in phosphate buffer (20 mM, pH 7.4). The system was kept at 37 °C for 5 min for complete chloramine taurine formation. The compounds were added to this mixture and incubated for 15 min at 37 °C. Taurine chloramine was quantified by the oxidation of TMB (2 mM) catalyzed by iodide (100 μM).[33]

For the next data set, the system named is dHL-60 cells. Put plainly: Cellular production of HOCl, PMA-activated dHL-60 cells. Format: cell-based, human. The following applies: 20 μM compound, 100 nM PMA, 1 h. On the procedure: Human promyelocytic leukemic cells (HL-60) (BCRJ, RJ, Brazil) were cultivated in RPMI with fetal bovine serum (10%), penicillin (62 μg/mL), and streptomycin (100 μg/mL) at 37 °C in 5% CO2 atmosphere. HL-60 cells were differentiated to neutrophil-like (dHL-60) by DMSO (1.25%) during 4 days.[25]
Measurement of HOCl production by 1 × 10^6 dHL-60 or neutrophils was carried out in PBS (10 mM Na2HPO4, 2 mM KH2PO4, 0.5 mM MgCl2, 1 mM CaCl2, 140 mM NaCl, 5.5 mM dextrose, 100 μM diethylenetriaminepentaacetic acid, 5 mM taurine) in the presence of the compounds (20 μM in 0.3% DMSO) or 0.3% DMSO (control). Cells were activated with phorbol myristate acetate (100 nM) at 37 °C for 1 h. After incubation, cells were centrifuged at 1400 rpm for 10 min, and the supernatant was diluted threefold. Finally, 240 μL of this supernatant was added to 60 μL acetate buffer (400 mM, pH 5.4) containing NaI (100 μM) and TMB (2 mM in DMFO 10%). Taurine chloramine was quantified by TMB oxidation at 655 nm.[33] Inhibition of HOCl production was calculated as the percentage of the control (vehicle).

The next data set deals with human neutrophils. Nature of the data set: MSU-induced NETosis assay (sytox green fluorescence microscopy). Format: cell-based. As to conditions: 20 μM compound, MSU 250 μg/mL, 90 min. On the procedure:
NETosis assay was conducted on human neutrophils adhered to lysine-coated glass coverslips as previously reported.[80] After neutrophils’ adhesion, the compounds were diluted in RPMI medium (free of phenol red and fetal bovine serum) at a final concentration of 20 μM (0.15% DMSO) and added to the cells for 15 min at 37 °C in a 5% CO2 atmosphere. Then, MSU crystals (250 μg/mL), known to induce NETosis, were added. After 90 min incubation, the medium was carefully removed, paraformaldehyde was added (500 μL at 4%), and incubated at 4 °C overnight. In the following day, paraformaldehyde was removed, and cells were washed threefold with tris-HCl buffer (20 mM, pH 7.4) and kept into the same buffer at 4 °C. Tris-HCl buffer was carefully removed, and DNA was stained by adding 500 μL SYTOX Green (500 nM diluted in tris-HCl buffer). The system was kept for 30 min at room temperature, protected from light. After staining, the coverslips were mounted over the glass slides using ProLong Diamond Antifade Mountant fixation medium. Fluorescence images were acquired in an Axiovert 200 (Zeiss) fluorescence microscope with a 20x/0.4 objective and Zeiss Filter Set 09, λex = 450–490 nm, λem = above 515 nm. Images were taken by an Axiocam HR R3 camera device.

The subject of a further data set is hTERT-RPE1 cells. Put plainly: Cell viability assay (XTT). It is filed as cell-based. The following applies: 2-50 μM, 72 h. The protocol:
hTERT-RPE1 cells were seeded in 24-well plates at 2 × 10^4 cells per well. After 24 h, cells were treated with 2, 5, 10, 25, or 50 μM RL6, RL7, or PTU in a culture medium (DMEM/F-12 with HEPES and 10% FBS). DMSO was added to untreated cells at 0.42% concentration as a vehicle control. After 72 h of treatment, cells were washed with PBS and left in 200 μL of XTT working solution for 3 h. The working solution was prepared according to manufacturer’s instructions but diluted eightfold in PBS. The supernatant was transferred to a 96-well plate; absorbance was read at 450 and 750 nm in a Synergy (Biotek, Winooski, VE, USA) plate reader and presented as percentage of control.
Figure S5. Evaluation of cytotoxicity by XTT. hTERT-RPE1 cells were seeded in 24-
well plates at 2 × 10^4 cells per well. 24h later, cells were treated with RL6, RL7 or PTU
(2, 5, 10, 25, 50 µM) in culture medium (DMEM/F-12 with HEPES and 10% FBS).
Viable cells were assessed 72h after treatments by measuring absorbance of the
supernatant at 450 and 750 nm and are presented as percentage of control (0.42%
DMSO). Data are mean ± SEM of three independent experiments.
In general terms: Formazan colour is commonly taken as a measure of viable cells.

The subject of data set [2] is total peroxidase activity. Nature of the data set: Paw tissue total peroxidase activity after MSU. Format: in vivo, male C57BL/6 mice. The following applies: intraperitoneal pretreatment (RL6 30 mg/kg), tissue collected at 6 h. On the procedure:
After the assessment of paw edema was completed, the mice were immediately anesthetized by inhalation of 2% isoflurane mixture in oxygen (O2). Subsequently, the surface of the hind paws was collected for the measurement of total peroxidase activity, IL-6, and IL-1β. These tissue samples were then frozen using dry ice and stored at −80 °C until further analysis. The frozen tissues were later pulverized into a fine powder using liquid nitrogen and homogenized in a phosphate buffer (100 mM, pH 7.4). For the analysis of total peroxidase activity, a portion of this homogenate was mixed with hexadecyltrimethylammonium (1% HTAB, pH 6.0), vigorously vortexed, and sonicated. The resulting mixture was then centrifuged at 10,000g for 10 min, at 4 °C, and heated at 60 °C for 2 h. The sample of each supernatant was incubated with a solution containing 50 mM phosphate buffer, 0.164 mg/mL of o-dianisidine dihydrochloride, and H2O2 (0.0005%, pH 6.0). […] Each unit represents the capacity to degrade 1 μmol of H2O2 per minute.[81]

A further data set has as its system IL-1β. Nature of the data set: Paw tissue IL-1β level after MSU (ELISA). It is filed as in vivo, male C57BL/6 mice. As to conditions: intraperitoneal pretreatment (RL6 30 mg/kg), tissue collected at 6 h. The protocol: (§1) The remaining part of the homogenate was treated with a solution of protease/phosphatase inhibitors (1 mM phenylmethylsulfonyl fluoride, 10 μg/mL leupeptin, and 10 μg/mL trypsin inhibitor) and centrifuged at 10,000g (10 min at 4 °C). The obtained supernatants were subjected to 1:2 dilution in PBS and subsequently used for the assessment of IL-1β and IL-6 using murine enzyme-linked immunosorbent assay kits, specifically a sandwich ELISA technique, following manufacturer’s instructions (BioLegend, CA, USA). The protein content within the samples was determined by using the Bradford method (1976). The results were quantified and expressed in pg/mg of protein (Bio-Rad, Hercules, CA, USA).[76]
(ELISA stands for enzyme-linked immunosorbent assay.)

The subject of another data set is IL-6. Nature of the data set: Paw tissue IL-6 level after MSU (ELISA). It is filed as in vivo, male C57BL/6 mice. As to conditions: intraperitoneal pretreatment (RL6 30 mg/kg), tissue collected at 6 h. The protocol: as §1

As for `CN1CCc2nc3sc(C(=O)Nc4cccc(C#N)c4)c(N)c3cc2C1` [RL7], the “scavenger activity toward taurine chloramine” value in data set [1] is “did not scavenge the milder oxidant taurine chloroamine”. Further, the “inhibition of HOCl production in dHL-60 cells” value in the data set with dHL-60 cells is “significantly inhibited”. In addition, the “inhibition of MSU-induced NETosis” value with human neutrophils was “to a lesser extent”. Further, in the data set with hTERT-RPE1 cells, the “cytotoxicity to hTERT-RPE1 cells” value was “highly cytotoxic at 50 μM”. Also, the “reduction in total peroxidase activity in hind paw tissue” value in data set [2] is on record as “unable to decrease”. In addition, the “decrease in IL-1β levels in hind paw tissue” value with IL-1β is recorded as “unable to decrease”. The “effect on IL-6 levels in hind paw tissue” value in the data set on IL-6 is “unable to decrease”.

As to `Nc1cc2c3c(cccc3c1)C(=O)N(N)C2=O` [RL6], the “scavenger activity toward taurine chloramine” value in data set [1] is “did not scavenge taurine chloramine”. In addition, in the data set on dHL-60 cells, the “inhibition of HOCl production in dHL-60 cells” value was “significantly inhibited”. For the same compound, the “inhibition of MSU-induced NETosis” value with human neutrophils is recorded as “strongly inhibited”. The “cytotoxicity to hTERT-RPE1 cells” value in the data set with hTERT-RPE1 cells is reported as “no cytotoxicity”. For the same compound, in data set [2], the “reduction in total peroxidase activity in hind paw tissue” value was found to be 61.5%. The “decrease in IL-1β levels in hind paw tissue” value in the data set with IL-1β was 48.3%. Moreover, the “effect on IL-6 levels in hind paw tissue” value in the data set on IL-6 is “no significant impact”.
